Test results reported in US20230181614A1, “ADMINISTRATION OF CITICOLINE TO IMPROVE COGNITIVE PERFORMANCE, ATTENTIONAL PERFORMANCE, AND MOTOR FUNCTION” (KYOWA HAKKO BIO CO., LTD., priority 2014, published 2023).

What was measured:
Type in all cases: in vivo, human
[1] = tested on: Healthy subjects, ages 13-18; experiment: Positive and Negative Affect Scale for Children (PANAS-C)
Text: Study participants were screened by telephone prior to study enrollment. Healthy subjects, ages 13-18, with no significant medical conditions and no history of co-morbid psychiatric disorder, current Axis I or II diagnosis, or previous participation in a pharmacotherapeutic trial, were selected. Use of any psychotropic medication or any previous head injury resulting in loss of consciousness for 5 or more minutes were used as exclusion criteria. While no participant met criteria for a neuropsychiatric disorder at enrollment, clinical assessments were still completed throughout the study to evaluate changes in mood state. In addition, self-reports of sleep habits, lifestyle, and exercise routines were also administered at baseline as well as at each study visit to assess changes in health habits during study participation. Following the completion of Visit 1 assessment, participants were given their 28-day supply of citicoline (250 mg or 500 mg) or placebo, which was randomly assigned. They were instructed to take one capsule a day every day for the next 28 days. Visit 2 occurred fourteen days after Visit 1. At Visit 2, the remaining study pills were counted and participant dosage calendars were checked to ensure compliance with the protocol. Additional neuropsychological measures and clinical assessments were administered during this visit. Participants returned for Visit 3 fourteen days later, on the 28th day of their study participation. The pill bottle and the dosage calendar were collected from each participant. Urine and blood were again obtained. Participants also participated in similar clinical and neuropsychological testing and clinical measures that were given during visit 1. The […] is a self-report questionnaire on which participants rate to what extent they are currently experiencing a variety of positive and negative emotions such as “excited” and “mad.” The PANAS was administered during each of the three visits to assess participant affect prior to taking the study drug as well as after taking the study drug over a period of 28 days.

[2] = tested on: Healthy subjects, ages 13-18; experiment: Pittsburgh Sleep Quality Index (PSQI); settings: for PSQI Score, Mean: V3-V1
Text: (§1) Study participants were screened by telephone prior to study enrollment. Healthy subjects, ages 13-18, with no significant medical conditions and no history of co-morbid psychiatric disorder, current Axis I or II diagnosis, or previous participation in a pharmacotherapeutic trial, were selected. Use of any psychotropic medication or any previous head injury resulting in loss of consciousness for 5 or more minutes were used as exclusion criteria. While no participant met criteria for a neuropsychiatric disorder at enrollment, clinical assessments were still completed throughout the study to evaluate changes in mood state. In addition, self-reports of sleep habits, lifestyle, and exercise routines were also administered at baseline as well as at each study visit to assess changes in health habits during study participation. Following the completion of Visit 1 assessment, participants were given their 28-day supply of citicoline (250 mg or 500 mg) or placebo, which was randomly assigned. They were instructed to take one capsule a day every day for the next 28 days. Visit 2 occurred fourteen days after Visit 1. At Visit 2, the remaining study pills were counted and participant dosage calendars were checked to ensure compliance with the protocol. Additional neuropsychological measures and clinical assessments were administered during this visit. Participants returned for Visit 3 fourteen days later, on the 28th day of their study participation. The pill bottle and the dosage calendar were collected from each participant. Urine and blood were again obtained. Participants also participated in similar clinical and neuropsychological testing and clinical measures that were given during visit 1. The PSQI is a self-report sleep questionnaire designed to assess usual sleep habits during the past month. The PSQI was administered at each of the three study visits to assess alterations to sleep quality during the 28 days of study participation.

[3] = tested on: Healthy subjects, ages 13-18; experiment: Continuous Performance Test (CPT); settings: for CPT Commissions V1, Mean / CPT Omissions V1, Mean / CPT Hit Reaction Time V1, Mean: Visit 1
Text: as §1, with “CPT” for “PSQI”, “test of sustained attention that has been adapted for computerized administration. The test requires participants” for “self-report sleep questionnaire designed”, “attend vigilantly to a series of target and distracter stimuli for a 14-minute duration. […]” for “assess usual sleep habits during the past month.”, “all” for “each of the”, “visits.” for “study visits to assess alterations to sleep quality during the 28 days of study participation.”

[4] = 250 mg/day group, Visit difference score
[5] = 250 mg/day group, Visit 3, in ms (unit assumed)
[6] = 250 mg/day group, visit difference score V3-V1
[7] = 500 mg/day group, Visit difference score

C[N+](C)(C)CCOP(=O)(O)OP(=O)([O-])OC[C@H]1O[C@@H](n2ccc(N)nc2=O)[C@H](O)[C@@H]1O [citicoline, Cytidine 5′-diphosphocholine]
PANAS-C Negative Score, Mean ([1]; 250 mg/day, V1 (baseline)): 23.15
PANAS-C Positive Score, Mean ([1]; 250 mg/day, V1 (baseline)): 45.74
PANAS-C Negative Score, Mean ([1]; 250 mg/day, V3 (day 28)): 19.81
PANAS-C Positive Score, Mean ([1]; 250 mg/day, V3 (day 28)): 41.93
PANAS-C Negative Score, Mean ([1]; 250 mg/day, V3-V1): -3.33
PANAS-C Positive Score, Mean ([1]; 250 mg/day, V3-V1): -3.81
PANAS-C Negative Score, Mean ([1]; 500 mg/day, V1 (baseline)): 21.55
PANAS-C Positive Score, Mean ([1]; 500 mg/day, V1 (baseline)): 43.30
PANAS-C Negative Score, Mean ([1]; 500 mg/day, V3 (day 28)): 18.00
PANAS-C Positive Score, Mean ([1]; 500 mg/day, V3 (day 28)): 41.78
PANAS-C Negative Score, Mean ([1]; 500 mg/day, V3-V1): -3.55
PANAS-C Positive Score, Mean ([1]; 500 mg/day, V3-V1): -1.52
PANAS-C positive emotional attributes, between groups ([1]; Placebo vs 500 mg/day, visit 3, p=0.39): No significant effect
PSQI, Mean ([2]; 250 mg/day, V1 (baseline)): 3.41
PSQI, Mean ([2]; 250 mg/day, V3 (day 28)): 2.59
PSQI Score, Mean ([2]; 250 mg/day): -0.81
PSQI, Mean ([2]; 500 mg/day, V1 (baseline)): 3.38
PSQI, Mean ([2]; 500 mg/day, V3 (day 28)): 2.46
PSQI Score, Mean ([2]; 500 mg/day): -0.92
CPT Commissions V1, Mean ([3]; 250 mg/day group): 18.22
CPT Omissions V1, Mean ([3]; 250 mg/day group): 9.59
CPT Hit Reaction Time V1, Mean ([3]; 250 mg/day group, in ms (unit assumed)): 362.62
V3-V1 CPT Commissions, Mean [3, 4]: -1.26
V3-V1 CPT Omissions, Mean [3, 4]: 4.93
V3-V1 CPT Hit Reaction Time, Mean ([3]; 250 mg/day group, Visit difference score, in ms (unit assumed)): 34.57
CPT Commissions V3, Mean ([3]; 250 mg/day group, Visit 3): 16.96
CPT Omissions V3, Mean ([3]; 250 mg/day group, Visit 3): 14.52
V3 CPT Commissions (Mean) ([3]; 250 mg/day group, Visit 3): 16.96
V3 CPT Omissions (Mean) ([3]; 250 mg/day group, Visit 3): 14.52
CPT Hit Reaction Time V3, Mean [3, 5]: 397.19
V3 CPT Hit Reaction Time (Mean) [3, 5]: 397.19
V3-V1 CPT Commissions, Mean [3, 6]: -1.26
V3-V1 CPT Omissions, Mean [3, 6]: 4.93
V3-V1 CPT Hit Reaction Time, Mean ([3]; 250 mg/day group, visit difference score V3-V1, in ms (unit assumed)): 34.57
CPT Commissions V1, Mean ([3]; 500 mg/day group): 18.79
CPT Omissions V1, Mean ([3]; 500 mg/day group): 8.42
CPT Hit Reaction Time V1, Mean ([3]; 500 mg/day group, in ms (unit assumed)): 363.58
CPT Hit Reaction Time V3, Mean ([3]; 500 mg/day group, Visit 3, in ms (unit assumed)): 391.30
V3-V1 CPT Commissions, Mean [3, 7]: -3.88
V3-V1 CPT Omissions, Mean [3, 7]: 5.33
V3-V1 CPT Hit Reaction Time, Mean ([3]; 500 mg/day group, Visit difference score, in ms (unit assumed)): 27.71
CPT Commissions V3, Mean ([3]; 500 mg/day group, Visit 3): 14.92
CPT Omissions V3, Mean ([3]; 500 mg/day group, Visit 3): 13.75
